# Data reported in PMC10907465 (Inflammopharmacology, 2023).
# Where two headings read alike, the source gives them in different places.
# What was measured:
# Assay type in all cases: in vivo, rat
# lung tissues = assay: LPS-induced ALI in rats: H&E histopathology and histological scoring of pulmonary inflammation; conditions: for Proportion of airspace area: airspace area / total area of one view, 400×; for Incidence of congestion / Incidence of hemorrhage / Severity of neutrophil infiltration: lung H&E
# Method: (§1) Thirty-five free pathogenic Sprague–Dawley male albino rats (100–120 g) were obtained from the Egyptian Drug Authority (EDA) animal house. Randomly, the animals were divided into seven groups, (each 5 rats) as follows: Group I: normal control group, Group II: positive control group on the 7th day only received LPS (Lipopolysaccharides) at a dose of 10 mg/kg bw. i.p. suspended in sterile saline solution 0.9% (Ijinu et al. [2022]), Group III dexamethasone positive control (5 mg/kg i.p.) (Murillo-Cuesta et al. [2023]) for 7 days followed by LPS single inflammatory dose model (10 mg/kg b. w i.p.). On the 7th day, 1 h after the last dexamethasone dose. […] All animals were anesthetized to obtain blood in heparinized capillary tubes for pro-inflammatory cytokines (TNF-α, IL-1, IL-6, and MPO) ELISA examination in addition to lung tissues for determination of antioxidant enzymes (SOD, Catalase, GSH and MDA), real-time PCR (p38.MAPK14 and CY450P2E1), western blot (NF-κB p65), histological lung tissue scoring and immunohistochemistry examination (TGF-β1).
# Lung tissues were collected and fixed in 10% neutral buffered formaldehyde for 24 h to stabilize and fix tissue proteins. Dehydration, clearing, and paraffin infiltration and embedding were performed, and then wax blocks were sectioned by microtome into 5 µ sections and stained with Hematoxylin and Eosin Stain. Hematoxylin staining was performed according Ehrlich's Hematoxylin (Ehrlich [1886]) and eosin staining was done according to Avwioro ([2011]). Anti-Transforming Growth Factor-β (TGF-β) antibody immunohistochemistry stain (Arigo Biolaboratories, ARG 56429) was also performed, and Immuno-histochemical staining was performed according to Bajracharya et al. ([2017]). The same position of the lungs in five […] was observed through a microscope, and the histological lesion of the lung was evaluated through the incidence of congestion, inflammation, and hemorrhage, severity scoring of neutrophil infiltrates, and proportion of airspace areas. The level of severity was judged from – to +++, representing none to severe. The airspace proportion is the ratio of the airspace area and the total area of one view under 400 × magnifications (Wang et al. [2018]). According to Xue et al. ([2011]) & Ai-Li Huang et al. ([2014]): the semi-quantitative criterion for TGF-β1 staining intensity was estimated using a four-tiered scoring system: negative (−), no staining at all; weak (+), weak staining regardless of positive cell percentages or moderate staining of ≤ 30% of cells; moderate (++), moderate staining of > 30% of cells or strong staining of ≤ 50% of cells; strong (+++), strong staining of > 50% of cells. Low expression of TGF-β1 was defined as (-) or ( +), and High expression was defined as (++) or (+++).
# SOD = assay: LPS-induced ALI in rats: pulmonary SOD; conditions: lung tissue
# Method: as §1
# P38.MAPK14 = assay: LPS-induced ALI in rats: real-time PCR of P38 MAPK gene in lung; conditions: lung tissue
# Method: (§2) Thirty-five free pathogenic Sprague–Dawley male albino rats (100–120 g) were obtained from the Egyptian Drug Authority (EDA) animal house. Randomly, the animals were divided into seven groups, (each 5 rats) as follows: Group I: normal control group, Group II: positive control group on the 7th day only received LPS (Lipopolysaccharides) at a dose of 10 mg/kg bw. i.p. suspended in sterile saline solution 0.9% (Ijinu et al. [2022]), Group III dexamethasone positive control (5 mg/kg i.p.) (Murillo-Cuesta et al. [2023]) for 7 days followed by LPS single inflammatory dose model (10 mg/kg b. w i.p.). On the 7th day, 1 h after the last dexamethasone dose. […]
# (§3) Primers were utilized in a 25- µl reaction containing 12.5 µl of the 2 × QuantiTect SYBR Green PCR Master Mix (StrateGene® MX3005P, Qiagen, Germany), 0.25 µl of Revert Aid reverse transcriptase (200 U/µL) (Thermo Fisher, Germany), 0.5 µl of each primer of 20 pmol concentration, 8.25 µl of water, and 3 µl of RNA template. […] Amplification curves and Ct values were determined by the Strata gene MX3005P software, version 3 (Agilent, California, USA). […]
# Catalase = assay: LPS-induced ALI in rats: pulmonary catalase; conditions: lung tissue
# Method: as §1
# TNF-α = conditions: ELISA, rats
# Method: as §1
# (§4) Rat TNF-α (Catalog No: MBS2507393 96 T/48 T/24 T), IL-6 (Catalog No: MBS355410), IL-1β (Catalog no. MBS825017), MPO (Catalog No. MBS2019590) ELISA kits were obtained from MyBiosource, San Diego, USA.
# MPO = conditions: ELISA, rats
# Method: as §1, §4
# NF-κB p65 = conditions: western blot, lung, relative band intensity (ratio of AU to internal control), rats
# Method: as §2
# Samples were separated on a polyacrylamide gel; the procedure was abbreviated as SDS-PAGE, or Sodium Dodecyl Sulfate Polyacrylamide Gel Electrophoresis, a standard technique for separating proteins according to their molecular weight. […] Imaging and data analysis quantitation: The chemiluminescent substrate (Clarity TM Western ECL substrate, Bio-Rad cat# 170-5060) was applied to the blot according to the manufacturer’s recommendation.
# MDA = assay: LPS-induced ALI in rats: pulmonary MDA; conditions: lung tissue
# Method: as §1
# TGF-β1 = conditions: rats
# Method: as §2
# Lung tissues were collected and fixed in 10% neutral buffered formaldehyde for 24 h to stabilize and fix tissue proteins. […] The same position of the lungs in five mice was observed through a microscope, and the histological lesion of the lung was evaluated through the incidence of congestion, inflammation, and hemorrhage, severity scoring of neutrophil infiltrates, and proportion of airspace areas. […]
# CY450P2E1 = assay: LPS-induced ALI in rats: real-time PCR of CY450P2E1 gene in lung; conditions: lung tissue
# Method: as §2, §3
# IL-1β = assay: LPS-induced ALI in rats: IL-1β ELISA
# Method: as §1, §4
# IL-6 = assay: LPS-induced ALI in rats: IL-6 ELISA
# Method: as §1, §4
# GSH = assay: LPS-induced ALI in rats: pulmonary GSH; conditions: lung tissue
# Method: as §1
# [1] = dexamethasone 5 mg/kg i.p. 7 days + LPS 10 mg/kg i.p.
molecule,measurement,setting,value
"C[C@@H]1C[C@H]2[C@@H]3CCC4=CC(=O)C=C[C@]4(C)[C@@]3(F)[C@@H](O)C[C@]2(C)[C@@]1(O)C(=O)CO [Dexamethasone, dexamethasone]",Proportion of airspace area,lung tissues; [1],4.89%
same,H&E histological examination of lung tissue (finding in words),lung tissues; [1],"collapsed alveoli in some areas, while other areas showed emphysema"
same,Incidence of congestion,lung tissues; [1],4/8
same,Incidence of hemorrhage,lung tissues; [1],1/8
same,Severity of neutrophil infiltration,lung tissues; [1],++
same,SOD,SOD; [1],0.8047 ± 0.041^*b
same,P38 MAPK Fold change,P38.MAPK14; [1],3.585 ± 0.2314^***b Fold change
same,Catalase,Catalase; [1],0.098 ± 0.006^*b
same,TNF-α,TNF-α; [1],91.27 ± 1.940^***b
same,MPO,MPO; [1],45.50 ± 2.926^***b
same,Nf-ĸB,NF-κB p65; [1],3.907 ± 0.048
same,MDA,MDA; [1],20.69 ± 2.49^***b
same,TGF-β1 immunohistochemical expression in lung,TGF-β1; [1],+ +
same,CY450P2E1 Fold change,CY450P2E1; [1],5.345 ± 0.3346^***b Fold change
same,IL-β1,IL-1β; [1],48.77 ± 1.995^***b
same,IL-6,IL-6; [1],58.87 ± 1.38^***b
same,GSH,GSH; [1],1.174 ± 0.1565^**b
Lipopolysaccharide [LPS],H&E histological examination of lung tissue (finding in words),lung tissues; LPS 10 mg/kg i.p. only,"collapsed alveoli in some areas, while other areas showed emphysema"
same,Proportion of airspace area,lung tissues; LPS 10 mg/kg i.p. only,2.66%
same,Incidence of congestion,lung tissues; LPS 10 mg/kg i.p. only,5/8
same,Incidence of hemorrhage,lung tissues; LPS 10 mg/kg i.p. only,2/8
same,Severity of neutrophil infiltration,lung tissues; LPS 10 mg/kg i.p. only,++++
same,SOD,SOD; LPS 10 mg/kg i.p. only,0.4713 ± 0.041^*a
same,P38 MAPK Fold change,P38.MAPK14; LPS 10 mg/kg i.p. only,9.682 ± 0.1741^***a Fold change
same,Catalase,Catalase; LPS 10 mg/kg i.p. only,0.2153 ± 0.001^*a
same,TNF-α,TNF-α; LPS 10 mg/kg i.p. only,157.0 ± 4.917^***a
same,MPO,MPO; LPS 10 mg/kg i.p. only,102.4 ± 3.496^***a
same,Nf-ĸB,NF-κB p65; LPS 10 mg/kg i.p. only,3.973 ± 0.014^***a
same,MDA,MDA; LPS 10 mg/kg i.p. only,42.15 ± 0.800^***a
same,TGF-β1 immunohistochemical expression in lung,TGF-β1; LPS 10 mg/kg i.p. only,+ +
same,CY450P2E1 Fold change,CY450P2E1; LPS 10 mg/kg i.p. only,12.68 ± 0.2038^***a Fold change
same,IL-β1,IL-1β; LPS 10 mg/kg i.p. only,112.2 ± 3.143^***a
same,IL-6,IL-6; LPS 10 mg/kg i.p. only,126.1 ± 3.75^***a
same,GSH,GSH; LPS 10 mg/kg i.p. only,0.4737 ± 0.038^*a
